For four compounds, IC50 results are on record in ChEMBL document CHEMBL2010642, “Trichostatin analogues JBIR-109, JBIR-110, and JBIR-111 from the marine sponge-derived Streptomyces sp. RM72” (J Nat Prod, 2012).

Structures are written as SMILES.

In the test the target is Histone deacetylase 1 (Homo sapiens, UniProt Q13547). The test can be described thus: Inhibition of human HDAC1 after 30 mins by fluorescence assay.
Sequence of Histone deacetylase 1 (Q13547 whole entry): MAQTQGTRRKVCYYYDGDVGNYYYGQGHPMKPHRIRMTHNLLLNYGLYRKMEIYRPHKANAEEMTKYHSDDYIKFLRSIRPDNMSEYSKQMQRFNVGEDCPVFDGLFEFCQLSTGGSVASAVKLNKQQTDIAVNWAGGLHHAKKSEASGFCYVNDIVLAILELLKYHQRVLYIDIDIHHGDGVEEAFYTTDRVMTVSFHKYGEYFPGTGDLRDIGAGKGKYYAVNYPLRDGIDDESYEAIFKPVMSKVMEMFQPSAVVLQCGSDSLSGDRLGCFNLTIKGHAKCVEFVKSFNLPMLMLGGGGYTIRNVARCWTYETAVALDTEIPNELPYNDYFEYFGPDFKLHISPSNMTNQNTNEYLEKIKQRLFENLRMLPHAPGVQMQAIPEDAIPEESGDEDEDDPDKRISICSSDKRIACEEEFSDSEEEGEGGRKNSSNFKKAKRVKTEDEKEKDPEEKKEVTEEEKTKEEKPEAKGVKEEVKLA
Compound `CC(/C=C/C(=O)N[C@@H](CCC(=O)O)C(=O)O)=C\[C@@H](C)C(=O)c1ccc(N(C)C)cc1` registered an IC50 of 48 µM.
For `CC(/C=C/C(=O)O)=C\[C@@H](C)C(=O)c1ccc(N(C)C)cc1` [TRICHOSTATIC ACID] the value was 73 µM; for `CC(/C=C/C(=O)N[C@](C)(CO)C(=O)O)=C\[C@@H](C)C(=O)c1ccc(N(C)C)cc1`, 57 µM.
Compound `CC(/C=C/C(=O)NCCS(=O)(=O)O)=C\[C@@H](C)C(=O)c1ccc(N(C)C)cc1` had a half-maximal inhibitory concentration (IC50) of 74 µM.
